Measured values as given in ChEMBL document CHEMBL5104164, “Design, synthesis, and biological evaluation of pyrrolopyrimidine derivatives as novel Bruton's tyrosine kinase (BTK) inhibitors” (Eur J Med Chem, 2022).

Key:
[1] = Half-life in male BALB/c mouse at 10 mg/kg, po; assay type: ADME, organism-based; settings: in vivo
[2] = test system: Rec1; assay: Antiproliferative activity against human REC1 cells incubated for 72 hrs by CellTiter-Glo assay; assay type: functional, cell-based; settings: Rec1, 72 h
[3] = Mutagenicity in Salmonella typhimurium TA1535 at 1.5 to 1000 ug per plate in presence of liver microsomes by AMES test; assay type: toxicity, Salmonella enterica subsp. enterica serovar Typhimurium; settings: dose 1.5-1000 µg
[4] = Toxicity in female CB-17 SCID nude mouse xenografted with human TMD8 cells assessed as effect on red blood cells at 50 mg/kg, po administered twice daily for 21 days; assay type: organism-based; settings: in vivo, 504 h, time 21 day
[5] = AUC (0 to infinity) in male BALB/c mouse at 10 mg/kg, po; assay type: ADME, organism-based; design: time infinity, dose 10 mg/kg, route po; settings: in vivo
[6] = Toxicity in female CB-17 SCID nude mouse xenografted with human TMD8 cells assessed as effect on platelets at 50 mg/kg, po administered twice daily for 21 days; assay type: organism-based; settings: in vivo, 504 h, time 21 day
[7] = test system: TMD8; assay: Cell cycle arrest in human TMD8 cells assessed as accumulation of cells at S phase at 100 nM after 48 hrs by propidium iodide staining based flow cytometric analysis (reference value: 49.3%); assay type: functional
[8] = Toxicity in female CB-17 SCID nude mouse xenografted with human TMD8 cells assessed as reduction in monocytes at 50 mg/kg, po administered twice daily for 21 days; assay type: organism-based; settings: in vivo, 504 h, time 21 day
[9] = Mutagenicity in Salmonella typhimurium TA98 at 1.5 to 1000 ug per plate by AMES test; assay type: toxicity, Salmonella enterica subsp. enterica serovar Typhimurium; settings: dose 1.5-1000 µg
[10] = AUC (0 to infinity) in male BALB/c mouse at 2 mg/kg, iv; assay type: ADME, organism-based; design: time infinity, dose 2 mg/kg, route iv; settings: in vivo
[11] = Mutagenicity in Salmonella typhimurium TA1537 at 1.5 to 1000 ug per plate by AMES test; assay type: toxicity, Salmonella enterica subsp. enterica serovar Typhimurium; settings: dose 1.5-1000 µg
[12] = test system: TMD8; assay: Cell cycle arrest in human TMD8 cells assessed as accumulation of cells at G2 phase at 1 nM after 48 hrs by propidium iodide staining based flow cytometric analysis (reference value: 13.4%); assay type: functional
[13] = test system: TMD8; assay: Antitumor activity against human TMD8 cells xenografted in female CB-17 SCID nude mouse assessed as tumor growth inhibition at 50 mg/kg, po administered twice daily for 21 days; assay type: functional; settings: TMD8, 504 h, time 21 day, read-out: TGI
[14] = Clearance in male BALB/c mouse at 2 mg/kg, iv; assay type: ADME, organism-based; settings: in vivo
[15] = Toxicity in female CB-17 SCID nude mouse xenografted with human TMD8 cells assessed as effect on body weight at 12.5 to 50 mg/kg, po administered twice daily for 21 days; assay type: organism-based; settings: in vivo, 504 h, dose 12.5-50 mg/kg, time 21 day
[16] = target: T1, Tyrosine-protein kinase JAK3 (Homo sapiens) (UniProt P52333); assay: Inhibition of Jak3 (unknown origin) assessed as residual percent of control at 1 uM measured by DiscoverX kinome scan assay relative to control
T1 sequence (whole entry): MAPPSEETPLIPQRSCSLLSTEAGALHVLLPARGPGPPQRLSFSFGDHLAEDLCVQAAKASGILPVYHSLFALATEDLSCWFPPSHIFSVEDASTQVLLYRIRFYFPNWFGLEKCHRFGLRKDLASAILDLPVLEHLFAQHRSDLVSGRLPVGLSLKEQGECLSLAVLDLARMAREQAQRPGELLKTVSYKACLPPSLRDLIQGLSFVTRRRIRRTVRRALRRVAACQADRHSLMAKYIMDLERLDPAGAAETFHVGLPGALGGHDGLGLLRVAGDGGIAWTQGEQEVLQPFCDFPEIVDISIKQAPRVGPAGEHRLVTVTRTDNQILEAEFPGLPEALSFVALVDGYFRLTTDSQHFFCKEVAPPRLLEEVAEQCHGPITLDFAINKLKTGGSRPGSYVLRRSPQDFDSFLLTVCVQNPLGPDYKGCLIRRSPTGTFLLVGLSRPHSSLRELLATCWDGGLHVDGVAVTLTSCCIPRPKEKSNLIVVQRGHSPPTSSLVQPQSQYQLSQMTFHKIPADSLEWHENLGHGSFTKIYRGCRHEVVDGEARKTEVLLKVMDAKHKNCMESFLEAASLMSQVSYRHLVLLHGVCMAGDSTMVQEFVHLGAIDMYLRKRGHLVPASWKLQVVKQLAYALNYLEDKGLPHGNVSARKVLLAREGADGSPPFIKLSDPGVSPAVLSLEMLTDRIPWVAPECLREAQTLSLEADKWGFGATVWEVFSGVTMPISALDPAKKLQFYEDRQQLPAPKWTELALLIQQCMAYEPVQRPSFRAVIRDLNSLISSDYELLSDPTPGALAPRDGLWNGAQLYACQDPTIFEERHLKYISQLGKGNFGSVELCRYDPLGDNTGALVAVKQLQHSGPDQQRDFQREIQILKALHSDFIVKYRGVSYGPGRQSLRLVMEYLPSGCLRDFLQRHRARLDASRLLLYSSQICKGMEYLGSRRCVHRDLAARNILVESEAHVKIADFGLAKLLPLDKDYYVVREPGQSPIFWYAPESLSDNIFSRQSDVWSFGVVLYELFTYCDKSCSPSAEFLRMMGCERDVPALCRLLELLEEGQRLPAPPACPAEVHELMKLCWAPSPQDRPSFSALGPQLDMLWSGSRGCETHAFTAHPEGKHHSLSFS

[17] = Cmax in male BALB/c mouse at 2 mg/kg, iv; assay type: ADME, organism-based; design: dose 2 mg/kg, route iv; settings: in vivo
[18] = test system: TMD8; assay: Cell cycle arrest in human TMD8 cells assessed as accumulation of cells at G2 phase at 10 nM after 48 hrs by propidium iodide staining based flow cytometric analysis (reference value: 13.4%); assay type: functional
[19] = test system: TMD8; assay: Cell cycle arrest in human TMD8 cells assessed as accumulation of cells at G0/G1 phase at 1 nM after 48 hrs by propidium iodide staining based flow cytometric analysis (reference value: 32.9%); assay type: functional
[20] = test system: Raji; assay: Antiproliferative activity against human Raji cells incubated for 72 hrs by CellTiter-Glo assay; assay type: functional, cell-based
[21] = test system: TMD8; assay: Cell cycle arrest in human TMD8 cells assessed as accumulation of cells at S phase at 1 nM after 48 hrs by propidium iodide staining based flow cytometric analysis (reference value: 49.3%); assay type: functional
[22] = Mutagenicity in Salmonella typhimurium TA100 at 1.5 to 1000 ug per plate by AMES test; assay type: toxicity, Salmonella enterica subsp. enterica serovar Typhimurium; settings: dose 1.5-1000 µg
[23] = test system: SUD4; assay: Antiproliferative activity against human SU-DHL-4 cells incubated for 72 hrs by CellTiter-Glo assay; assay type: functional, cell-based; settings: SU-DHL-4, 72 h
[24] = Half-life in male BALB/c mouse at 2 mg/kg, iv; assay type: ADME, organism-based; settings: in vivo
[25] = Cmax in male BALB/c mouse at 10 mg/kg, po; assay type: ADME, organism-based; design: dose 10 mg/kg, route po; settings: in vivo
[26] = Tmax in male BALB/c mouse at 2 mg/kg, iv; assay type: ADME, organism-based; settings: in vivo
[27] = test system: TMD8; assay: Cell cycle arrest in human TMD8 cells assessed as accumulation of cells at G0/G1 phase at 10 nM after 48 hrs by propidium iodide staining based flow cytometric analysis (reference value: 32.9%); assay type: functional

- half-life [1]: 35.4 min
- AUC(0-inf) [5]: 1470 ng·h/mL
- AUC(0-inf) [10]: 718 ng·h/mL
- clearance [14]: 47.8 mL/min/kg
- Activity [16]: 3.8%
- Cmax [17]: 2250 ng/mL
- IC50 [20]: > 10 µM
- half-life [24]: 40.2 min
- Cmax [25]: 1440 ng/mL
- Tmax [26]: 1.8 min
Structure (SMILES): C=CC(=O)N1CC=C(c2c[nH]c3ncnc(-c4ccc(CNC(=O)c5ccccc5)c(F)c4)c23)CC1
- IC50 [2]: 0.0017 µM
- Activity [3]: Non-Toxic
- Activity [4]: Non-Toxic
- Activity [6]: Non-Toxic
- Activity [7]: 24.6%
- Activity [8]: Toxic
- Activity [9]: Non-Toxic
- Activity [11]: Non-Toxic
- Activity [12]: 11.8%
- inhibition in vivo at 50 mg/kg [13]: 104%
- Activity [15]: Non-Toxic
- Activity [18]: 8.7%
- Activity [19]: 33%
- Activity [21]: 49.3%
- Activity [22]: Non-Toxic
- IC50 [23]: > 10 µM
- Activity [27]: 59.2%
